Laboratory results published in patent US12528857B2, “Nutritionally-optimized collagen peptide” (Gelita AG, priority 2019, dated 2026).
Where no end group is shown, it is not given here. [ ]: non-standard residue; d: D form. Hyp = O=C(O)[C@@H]1C[C@@H](O)CN1

Legend:
[1] = tested on: human dermal fibroblasts; assay: Proteoglycan assay (Blyscan glycosaminoglycan assay): proteoglycan synthesis by dermal fibroblasts; type: cell-based; settings: 0.5 mg/ml collagen peptide, stimulation for two weeks, photometric at 656 nm, FIG. 1B
Description: (§1) The human cells used were obtained from tebu-bio GmbH, Offenbach, Germany. The chondrocytes (Cat. No. 402-05a) or dermal fibroblasts (Cat. No. 106-05a) were first sown in 12-well culture plates and cultured at 37° C., 5% CO2 in Ham's F12 medium, to which 10% fetal calf serum, 20 U/ml penicillin-streptomycin and 50 μg/ml ascorbic acid were added. On every other day, the culture medium was replaced by new culture medium until the cells had reached 80% confluence. To investigate the influence of the collagen peptides according to the invention of SEQ ID NO: 7, 8, 9 and 10 on the biosynthesis of matrix proteins, the cell culture medium was then replaced by a special stimulation medium to which 0.5 mg/ml of the specific collagen peptides according to the invention were added.
The Blyscan glycosaminoglycan assay (Article No. 054B3000, 2019, tebu-bio, Offenbach, Germany, or Biocolor Ltd., UK) was used to determine proteoglycans. The biosynthesis of proteoglycans was determined after stimulating dermal fibroblasts for two weeks. According to the manufacturer's instructions, after discarding the culture medium, the cell layers were covered with 1 ml of papain extraction solution and incubated for three hours at 65° C. with vigorous shaking. The cell suspensions were then centrifuged (10,000 g, 10 min) and the supernatants were collected. After adding 1 ml of Blyscan dye solution and shaking (30 min), the supernatants were centrifuged again (12,000 rpm, 10 min) and then discarded. The isolated proteoglycan pellets were resuspended in 500 μl of dissociation solution. A photometric determination of the synthesized proteoglycan in 200 μl sample solution was carried out at a wavelength of 656 nm in comparison to untreated control experiments.

[2] = tested on: human dermal fibroblasts; assay: Collagen assay (Sircol): collagen synthesis by dermal fibroblasts; type: cell-based; settings: 0.5 mg/ml collagen peptide, stimulation for three weeks, photometric at 492 nm, FIG. 1A
Description: as §1
To investigate the collagen metabolism, the amount of newly synthesized collagen was determined after stimulating the cells with 0.5 mg/ml BCP for three weeks. The synthesized collagen was isolated using the Sircol assay (Article No. 054S5000, 2019, tebu-bio, Offenbach, Germany, or Biocolor Ltd., UK) according to the manufacturer's instructions. In brief, the culture medium was initially discarded and the adherent cell layers were digested with 0.1 mg pepsin solution in 0.5 M acetic acid at 4° C. overnight. The cell suspensions were neutralized by adding 100 μl of an acid-neutralizing reagent. The synthesized collagen was then separated off by adding 200 μl of an isolation and concentration solution with vigorous shaking at 4° C. overnight. After centrifugation (12,000 rpm, 10 min) and discarding the supernatant, the isolated collagen was resuspended in 1 ml of Sircol dye solution. After 30 minutes of shaking and another centrifugation, the collagen pellet was covered with 750 μl of cold acidic solid washing reagent. After another centrifugation, the supernatant was again discarded and the enriched collagen was taken up in 250 μl of alkaline solution. In each case 200 μl of the sample solutions were used for photometric quantification of the synthesized collagen. The absorbance was measured at a wavelength of 492 nm. The amount of collagen synthesized in each case was determined on the basis of standardized collagen solutions.

| Substance | increase of synthesis of proteoglycans by dermal fibroblasts in comparison to untreated controls [1] | increased collagen synthesis by dermal fibroblasts compared to untreated controls [2] |
| --- | --- | --- |
| GP[P]GPLGMKGL[P]GVWGPFGL[P]GTPGPHGITGYKGV [SEQ ID NO: 9] | 21% | 21% |
| GP[P]GPVGTKGL[P]GFYGPLGI[P]GHPGPWGMLGTKGV [SEQ ID NO: 10] | 22% | 21% |
| GL[P]GKMGVFGLTGPIGP[P]GPWGV[P]GHKGYLGPT (GL[Hyp]GKMGVFGLTGPIGP[Hyp]GPWGV[Hyp]GHKGYLGPT) [SEQ ID NO: 7] | 26% | 27% |
| GL[P]GKYGVHGLTGPLGP[P]GPMGI[P]GWKGFVGPT (GL[Hyp]GKYGVHGLTGPLGP[Hyp]GPMGI[Hyp]GWKGFVGPT) [SEQ ID NO: 8] | 22% | 22% |
